Measurements from article PMC5218480 (PLoS ONE, 2017).

System: MV-4-11 cells
Assay: Gene expression microarray analysis (Affymetrix PrimeView) and GSEA
Assay type: cell-based, human
Parameters: RFU PODN (11730768_x_at) / Fold change /veh PODN (11730768_x_at) / RFU LINC00158 (11744669_a_at) / Fold change /veh LINC00158 (11744669_a_at) / RFU DUSP10 (11751237_a_at) / Fold change /veh DUSP10 (11751237_a_at) / RFU ID3 (11757404_x_at) / Fold change /veh ID3 (11757404_x_at) / RFU PLEKHG5 (11737974_s_at) / Fold change /veh PLEKHG5 (11737974_s_at) / RFU LRRC4B (11730491_at) / Fold change /veh LRRC4B (11730491_at) / RFU GIMAP4 (11747438_a_at) / Fold change /veh GIMAP4 (11747438_a_at) / RFU KRT8 (11758183_x_at) / Fold change /veh KRT8 (11758183_x_at) / RFU CNN1 (11734310_a_at) / Fold change /veh CNN1 (11734310_a_at) / RFU VPS37D (11726825_at) / Fold change /veh VPS37D (11726825_at) / RFU C10orf10 (11716522_x_at) / Fold change /veh C10orf10 (11716522_x_at) / RFU KIR2DL2 /// KIR2DL4 /// KIR2DL5A /// KIR2DL5B /// KIR2DS1 /// KIR2DS2 /// KIR2DS3 /// KIR2DS4 /// KIR3DL3 /// KIR3DL3 /// KIR3DS1 (11738374_at) / Fold change /veh KIR2DL2 /// KIR2DL4 /// KIR2DL5A /// KIR2DL5B /// KIR2DS1 /// KIR2DS2 /// KIR2DS3 /// KIR2DS4 /// KIR3DL3 /// KIR3DL3 /// KIR3DS1 (11738374_at) / RFU C1QL1 (11718748_at) / Fold change /veh C1QL1 (11718748_at) / RFU TMPRSS4 (11747572_a_at) / Fold change /veh TMPRSS4 (11747572_a_at) / RFU HAMP (11756126_x_at) / Fold change /veh HAMP (11756126_x_at) / RFU RNFT2 (11725882_a_at) / Fold change /veh RNFT2 (11725882_a_at) / RFU NR4A2 (11747474_a_at) / Fold change /veh NR4A2 (11747474_a_at) / RFU ABCC12 (11746883_a_at) / Fold change /veh ABCC12 (11746883_a_at) / RFU TMEM136 (11760407_x_at) / Fold change /veh TMEM136 (11760407_x_at) / RFU CLDN22 /// WWC2 (11732394_at) / Fold change /veh CLDN22 /// WWC2 (11732394_at) / RFU HLA-DPB1 (11760878_x_at) / Fold change /veh HLA-DPB1 (11760878_x_at) / RFU SPINT1 (11716480_a_at) / Fold change /veh SPINT1 (11716480_a_at) / RFU GAP43 (11754022_s_at) / Fold change /veh GAP43 (11754022_s_at) / RFU A4GNT (11735810_at) / Fold change /veh A4GNT (11735810_at) / RFU PRB3 (11715151_x_at) / Fold change /veh PRB3 (11715151_x_at) / RFU TUBB4B (11761932_at) / Fold change /veh TUBB4B (11761932_at) / RFU CAPN14 (11732068_a_at) / Fold change /veh CAPN14 (11732068_a_at) / RFU TMCC2 (11721928_a_at) / Fold change /veh TMCC2 (11721928_a_at) / RFU IRGQ (11745062_a_at) / Fold change /veh IRGQ (11745062_a_at) / RFU FAM174B (11720279_a_at) / Fold change /veh FAM174B (11720279_a_at) / RFU TMPRSS4 (11748680_a_at) / Fold change /veh TMPRSS4 (11748680_a_at) / RFU FAM212B (11763350_a_at) / Fold change /veh FAM212B (11763350_a_at) / RFU PLEKHG5 (11743358_a_at) / Fold change /veh PLEKHG5 (11743358_a_at) / RFU ZSCAN30 (11745921_a_at) / Fold change /veh ZSCAN30 (11745921_a_at) / RFU CMKLR1 (11741424_a_at) / Fold change /veh CMKLR1 (11741424_a_at) / RFU LOC101060620 /// MAPK8IP1 (11723275_at) / Fold change /veh LOC101060620 /// MAPK8IP1 (11723275_at) / RFU SPTSSB (11747773_x_at) / Fold change /veh SPTSSB (11747773_x_at) / RFU PRSS12 (11739890_at) / Fold change /veh PRSS12 (11739890_at) / RFU BIN1 (11741810_x_at) / Fold change /veh BIN1 (11741810_x_at) / RFU WNT11 (11732464_a_at) / Fold change /veh WNT11 (11732464_a_at) / RFU C10orf10 (11716521_a_at) / Fold change /veh C10orf10 (11716521_a_at) / RFU C5orf56 (11738089_at) / Fold change /veh C5orf56 (11738089_at) / RFU CYB561 (11721691_x_at) / Fold change /veh CYB561 (11721691_x_at) / RFU ANKRD19P (11752326_a_at) / Fold change /veh ANKRD19P (11752326_a_at) / RFU OR2T12 /// OR2T33 /// OR2T8 (11738714_s_at) / Fold change /veh OR2T12 /// OR2T33 /// OR2T8 (11738714_s_at) / RFU VCAN (11748164_a_at) / Fold change /veh VCAN (11748164_a_at) / RFU JSRP1 (11732532_at) / Fold change /veh JSRP1 (11732532_at) / RFU KRTAP10-11 (11738290_x_at) / Fold change /veh KRTAP10-11 (11738290_x_at) / RFU MYO3A (11730013_a_at) / Fold change /veh MYO3A (11730013_a_at) / RFU EBF3 (11725865_a_at) / Fold change /veh EBF3 (11725865_a_at) / RFU CAMK2N1 (11719241_x_at) / Fold change /veh CAMK2N1 (11719241_x_at) / RFU C5orf56 (11738088_a_at) / Fold change /veh C5orf56 (11738088_a_at) / RFU OLFML3 (11715873_a_at) / Fold change /veh OLFML3 (11715873_a_at) / RFU LOC100653217 /// NTM (11731650_a_at) / Fold change /veh LOC100653217 /// NTM (11731650_a_at) / RFU MAPK11 (11762145_a_at) / Fold change /veh MAPK11 (11762145_a_at) / RFU FIZ1 (11724087_x_at) / Fold change /veh FIZ1 (11724087_x_at) / RFU OASL (11726364_x_at) / Fold change /veh OASL (11726364_x_at) / RFU SOX15 (11748057_x_at) / Fold change /veh SOX15 (11748057_x_at) / RFU CD79A (11719716_a_at) / Fold change /veh CD79A (11719716_a_at) / RFU HIST1H1D (11736915_at) / Fold change /veh HIST1H1D (11736915_at) / RFU CASKIN2 (11723855_a_at) / Fold change /veh CASKIN2 (11723855_a_at) / RFU LOC730098 (11760151_x_at) / Fold change /veh LOC730098 (11760151_x_at) / RFU OR4N2 (11742367_at) / Fold change /veh OR4N2 (11742367_at) / RFU PRRT2 (11749266_a_at) / Fold change /veh PRRT2 (11749266_a_at) / RFU SNX32 (11753110_a_at) / Fold change /veh SNX32 (11753110_a_at) / RFU CDHR5 (11726645_a_at) / Fold change /veh CDHR5 (11726645_a_at) / RFU RCAN1 (11760418_a_at) / Fold change /veh RCAN1 (11760418_a_at) / RFU FAM167A (11723789_a_at) / Fold change /veh FAM167A (11723789_a_at) / RFU FAM26E (11764081_at) / Fold change /veh FAM26E (11764081_at) / RFU ISYNA1 (11749810_s_at) / Fold change /veh ISYNA1 (11749810_s_at) / RFU ACY1 (11761880_at) / Fold change /veh ACY1 (11761880_at) / RFU 11764098_at / Fold change /veh 11764098_at / RFU SAMD14 (11745864_x_at) / Fold change /veh SAMD14 (11745864_x_at) / RFU NPB (11741838_a_at) / Fold change /veh NPB (11741838_a_at) / RFU TMPRSS6 (11731388_a_at) / Fold change /veh TMPRSS6 (11731388_a_at) / RFU KRTAP10-2 (11738614_at) / Fold change /veh KRTAP10-2 (11738614_at) / RFU ARHGAP8 /// PRR5-ARHGAP8 (11727945_x_at) / Fold change /veh ARHGAP8 /// PRR5-ARHGAP8 (11727945_x_at) / RFU KRTAP5-7 /// NADSYN1 (11734609_at) / Fold change /veh KRTAP5-7 /// NADSYN1 (11734609_at) / RFU RASL12 (11751679_a_at) / Fold change /veh RASL12 (11751679_a_at) / RFU CDKN2B (11736163_a_at) / Fold change /veh CDKN2B (11736163_a_at) / RFU PRF1 (11729649_at) / Fold change /veh PRF1 (11729649_at) / RFU, ZNF638 /// ZNF638-IT1 / Fold change vs veh, ZNF638 /// ZNF638-IT1 / RFU, PANK3 / Fold change vs veh, PANK3 / RFU, SH3YL1 / Fold change vs veh, SH3YL1 / RFU, ZEB2 / Fold change vs veh, ZEB2 / RFU, NRIP1 / Fold change vs veh, NRIP1 / RFU, PTTG1IP / Fold change vs veh, PTTG1IP / RFU, CAPN2 / Fold change vs veh, CAPN2 / RFU, MED14 / Fold change vs veh, MED14 / RFU, SNORA58 / Fold change vs veh, SNORA58 / RFU, C1orf63 / Fold change vs veh, C1orf63 / RFU, LRRFIP1 / Fold change vs veh, LRRFIP1 / RFU, NDUFAF7 / Fold change vs veh, NDUFAF7 / RFU, SLC12A2 / Fold change vs veh, SLC12A2 / RFU, IBTK / Fold change vs veh, IBTK / RFU, ESF1 / Fold change vs veh, ESF1 / Fold change vs veh, TMEM50B / RFU, TAOK1 / Fold change vs veh, TAOK1 / RFU, ACBD3 / Fold change vs veh, ACBD3 / RFU, TMA16 / Fold change vs veh, TMA16 / RFU, RWDD3 / Fold change vs veh, RWDD3 / RFU, BCAT1 / Fold change vs veh, BCAT1 / RFU, EDEM3 / Fold change vs veh, EDEM3 / RFU, TMEM33 / Fold change vs veh, TMEM33 / RFU, WDR75 / Fold change vs veh, WDR75 / RFU, AHCTF1 / Fold change vs veh, AHCTF1 / RFU, TFRC / Fold change vs veh, TFRC / RFU, ZDHHC17 / Fold change vs veh, ZDHHC17 / RFU, NOM1 / Fold change vs veh, NOM1 / RFU, ARL8B / Fold change vs veh, ARL8B / RFU, ZBTB11 / Fold change vs veh, ZBTB11 / RFU, TAMM41 / Fold change vs veh, TAMM41 / RFU, KIAA1704 /// LOC100996395 / Fold change vs veh, KIAA1704 /// LOC100996395 / RFU, ING1 / Fold change vs veh, ING1 / RFU, TRMT61B / Fold change vs veh, TRMT61B / RFU, FUBP3 / Fold change vs veh, FUBP3 / RFU, TP53 / Fold change vs veh, TP53 / RFU, TNKS2 / Fold change vs veh, TNKS2 / RFU, ZFP14 / Fold change vs veh, ZFP14 / RFU, ACTR2 / Fold change vs veh, ACTR2 / RFU, PPP3R1 / Fold change vs veh, PPP3R1 / RFU, PIK3R1 / Fold change vs veh, PIK3R1 / RFU, HNRNPA1 / Fold change vs veh, HNRNPA1 / RFU, RNF170 / Fold change vs veh, RNF170 / RFU, ZNF28 / Fold change vs veh, ZNF28 / RFU, RNGTT / Fold change vs veh, RNGTT / RFU, OGT / Fold change vs veh, OGT / RFU, BRD1 / Fold change vs veh, BRD1 / RFU, MARS / Fold change vs veh, MARS / RFU, ZNF655 / Fold change vs veh, ZNF655 / RFU, FAHD1 / Fold change vs veh, FAHD1 / RFU, BDP1 / Fold change vs veh, BDP1 / RFU, LRRCC1 / Fold change vs veh, LRRCC1 / RFU, ARID1A / Fold change vs veh, ARID1A / RFU, ZNF146 / Fold change vs veh, ZNF146 / RFU, ZNF330 / Fold change vs veh, ZNF330 / RFU, GPN3 / Fold change vs veh, GPN3 / RFU, C9orf123 / Fold change vs veh, C9orf123 / RFU, N4BP2L2 / Fold change vs veh, N4BP2L2 / RFU, ARFIP1 / Fold change vs veh, ARFIP1 / RFU, FAM179B / Fold change vs veh, FAM179B / RFU, BCL10 / Fold change vs veh, BCL10 / RFU, UHRF1BP1L / Fold change vs veh, UHRF1BP1L / RFU, BET1 / Fold change vs veh, BET1 / RFU, CNOT2 / Fold change vs veh, CNOT2 / RFU, ZNF268 / Fold change vs veh, ZNF268 / Fold change vs veh, ZNF507 / RFU, DGCR2 / Fold change vs veh, DGCR2 / RFU, WDSUB1 / Fold change vs veh, WDSUB1 / Fold change vs veh, HSP90B1 /// MIR3652 / RFU, ADSS / Fold change vs veh, ADSS / RFU, GK / Fold change vs veh, GK / RFU, ZNF148 / Fold change vs veh, ZNF148 / RFU, TAF9 / Fold change vs veh, TAF9 / RFU, SLC1A5 / Fold change vs veh, SLC1A5 / RFU, SLMO2 / Fold change vs veh, SLMO2 / RFU, ABCC4 / Fold change vs veh, ABCC4 / RFU, LOC101060439 /// RAP1B / Fold change vs veh, LOC101060439 /// RAP1B / RFU, RFX7 / Fold change vs veh, RFX7 / RFU, GTPBP10 / Fold change vs veh, GTPBP10 / RFU, CNEP1R1 / Fold change vs veh, CNEP1R1 / RFU, BIVM-ERCC5 /// ERCC5 / Fold change vs veh, BIVM-ERCC5 /// ERCC5 / RFU, ILF3 / Fold change vs veh, ILF3 / RFU 11762660_at / Fold change /veh 11762660_at / RFU VCAN (11757783_s_at) / Fold change /veh VCAN (11757783_s_at) / RFU DDX43 (11728927_at) / Fold change /veh DDX43 (11728927_at) / RFU KRT8 (11758188_x_at) / Fold change /veh KRT8 (11758188_x_at) / RFU NKD1 (11759106_at) / Fold change /veh NKD1 (11759106_at) / RFU SRD5A1 (11742802_a_at) / Fold change /veh SRD5A1 (11742802_a_at) / RFU TPSAB1 /// TPSB2 (11721975_s_at) / Fold change /veh TPSAB1 /// TPSB2 (11721975_s_at) / RFU GSTM3 (11746129_a_at) / Fold change /veh GSTM3 (11746129_a_at) / RFU IL23R (11737362_x_at) / Fold change /veh IL23R (11737362_x_at) / RFU TMEM51 (11727254_a_at) / Fold change /veh TMEM51 (11727254_a_at) / RFU PIWIL2 (11732686_x_at) / Fold change /veh PIWIL2 (11732686_x_at) / RFU ORM1 (11744905_x_at) / Fold change /veh ORM1 (11744905_x_at) / RFU CCDC152 (11743942_at) / Fold change /veh CCDC152 (11743942_at) / RFU ECM1 (11717891_a_at) / Fold change /veh ECM1 (11717891_a_at) / RFU IL23R (11748794_a_at) / Fold change /veh IL23R (11748794_a_at) / RFU TNFAIP8L3 (11732012_x_at) / Fold change /veh TNFAIP8L3 (11732012_x_at) / RFU MBOAT4 (11741988_at) / Fold change /veh MBOAT4 (11741988_at) / RFU 11764193_at / Fold change /veh 11764193_at / RFU TMEM53 (11763286_at) / Fold change /veh TMEM53 (11763286_at) / RFU MAGEB2 (11727129_at) / Fold change /veh MAGEB2 (11727129_at) / RFU TMEM200A (11744735_a_at) / Fold change /veh TMEM200A (11744735_a_at) / RFU CCDC152 (11751479_a_at) / Fold change /veh CCDC152 (11751479_a_at) / RFU FAM211A (11726209_a_at) / Fold change /veh FAM211A (11726209_a_at) / RFU RGS16 (11746705_a_at) / Fold change /veh RGS16 (11746705_a_at) / RFU VCAN (11755009_s_at) / Fold change /veh VCAN (11755009_s_at) / RFU RHOB (11743442_s_at) / Fold change /veh RHOB (11743442_s_at) / RFU RGS16 (11720943_a_at) / Fold change /veh RGS16 (11720943_a_at) / RFU RGS16 (11720944_at) / Fold change /veh RGS16 (11720944_at) / RFU, VPS4B / Fold change vs veh, VPS4B / RFU, CREB1 / Fold change vs veh, CREB1 / RFU, DNAJC13 / Fold change vs veh, DNAJC13 / RFU, GNAQ / Fold change vs veh, GNAQ / RFU, CDK5R1 / Fold change vs veh, CDK5R1 / RFU, ZRANB3 / Fold change vs veh, ZRANB3 / RFU, CUL4A / Fold change vs veh, CUL4A / RFU, CCNY / Fold change vs veh, CCNY / RFU, UFL1 / Fold change vs veh, UFL1 / RFU, COG3 / Fold change vs veh, COG3 / RFU, DIAPH2 / Fold change vs veh, DIAPH2 / RFU, SKA2 / Fold change vs veh, SKA2 / RFU, AFF3 / Fold change vs veh, AFF3 / RFU, LMF1 / Fold change vs veh, LMF1 / RFU, IPO11 / Fold change vs veh, IPO11 / RFU, DFFB / Fold change vs veh, DFFB / RFU, FOXP1 / Fold change vs veh, FOXP1 / RFU, CARD8 / Fold change vs veh, CARD8 / RFU, STRN3 / Fold change vs veh, STRN3 / RFU, ADK / Fold change vs veh, ADK / RFU, RASSF2 / Fold change vs veh, RASSF2 / RFU, WIPF1 / Fold change vs veh, WIPF1 / RFU, LARP1B / Fold change vs veh, LARP1B / RFU, RASA1 / Fold change vs veh, RASA1 / RFU, RB1 / Fold change vs veh, RB1 / RFU, PPFIA1 / Fold change vs veh, PPFIA1 / RFU, MAT2A / Fold change vs veh, MAT2A / RFU, CCT5 / Fold change vs veh, CCT5 / RFU, WDR92 / Fold change vs veh, WDR92 / RFU, CUX1 / Fold change vs veh, CUX1 / RFU, TTC7A / Fold change vs veh, TTC7A / RFU, TMEM135 / Fold change vs veh, TMEM135 / RFU, DEPTOR / Fold change vs veh, DEPTOR / RFU, CPM / Fold change vs veh, CPM / RFU, DNAJB6 / Fold change vs veh, DNAJB6 / RFU, CACNA2D3 / Fold change vs veh, CACNA2D3 / RFU, DTX4 / Fold change vs veh, DTX4 / RFU, TFCP2 / Fold change vs veh, TFCP2 / RFU, GMCL1 /// GMCL1P1 / Fold change vs veh, GMCL1 /// GMCL1P1 / RFU, AEBP2 / Fold change vs veh, AEBP2 / RFU, SNHG1 /// SNORD22 /// SNORD25 /// SNORD26 /// SNORD27 /// SNORD28 /// SNORD29 /// SNORD31 / Fold change vs veh, SNHG1 /// SNORD22 /// SNORD25 /// SNORD26 /// SNORD27 /// SNORD28 /// SNORD29 /// SNORD31 / Fold change (Aza/veh), C12orf56 (ProbeSet 11735607_a_at) / Fold change (ACY-1035/veh), C12orf56 (ProbeSet 11735607_a_at) / Fold change (Aza/veh), FGFR1OP (ProbeSet 11751329_s_at) / Fold change (ACY-1035/veh), FGFR1OP (ProbeSet 11751329_s_at) / Fold change (Aza/veh), VPS36 (ProbeSet 11739960_a_at) / Fold change (ACY-1035/veh), VPS36 (ProbeSet 11739960_a_at) / RFU SYPL1 (11715823_x_at) / Fold change /veh SYPL1 (11715823_x_at) / RFU IGFBP7 (11715501_s_at) / Fold change /veh IGFBP7 (11715501_s_at) / RFU REEP3 (11722064_at) / Fold change /veh REEP3 (11722064_at) / RFU IGLL1 (11728026_x_at) / Fold change /veh IGLL1 (11728026_x_at): dose or concentration left out as unconfirmed
Conditions: ProbeSet 11734937_a_at; LIST B

Compound: Nc1ccc(-c2cccs2)cc1NC(=O)c1ccc2c(c1)cc(C1CC1)n2CCN1CCOCC1 [ACY-1035]
- RFU, CNOT2: 798.97 RFU
